{
  "source": "patent US20220168307A1",
  "about": "“TREATMENT OF SMA” (Hoffmann-La Roche Inc., priority 2019, published 2022)",
  "assay": "Risdiplam treatment of patients with SMA: safety and exposure",
  "format": "in vivo, human",
  "data": [
    {"molecule": "Cc1cn2nc(-c3cc(=O)n4cc(N5CCNC6(CC6)C5)ccc4n3)cc(C)c2n1", "note": "[risdiplam, 7-(4,7-diazaspiro[2.5]octan-7-yl)-2-(2,8-dimethylimidazo[1,2-b]pyridazin-6-yl)pyrido[1,2-a]pyrimidin-4-one]", "values": [
      {"measurement": "safety and tolerability (in words)", "setting": "5 mg risdiplam, more than 1 year of treatment, patients with SMA", "value": "safe and well tolerated"},
      {"measurement": "AUC", "setting": "human, in vivo, SMA patients, steady state, read-out: mean AUCtau at steady state (therapeutic exposure observed in SMA patients)", "value": 2000, "unit": "ng·h/mL"}
    ]}
  ]
}
